Assay results published in article PMC6127211, “The DnaA AAA+ Domain His136 Residue Directs DnaB Replicative Helicase to the Unwound Region of the Replication Origin, oriC” (Frontiers in Microbiology, 2018).
Changes are numbered by the printed parent chain. In names and notes the source's numbering stands. Read-outs that look alike come from different tables or passages of the source. Values belong to the molecule of their own block, whether it stands above or below them.

Key:
DnaA (wild-type DnaA) = molecular target: T1, DnaA (wild-type DnaA) (Escherichia coli, UniProt P03004); assay: nucleotide binding to purified DnaA (method not described)
T1 construct: full-length wild-type DnaA, overproduced from pKA234 (arabinose-inducible pING derivative) in E. coli KA450 and purified; no tag mentioned
T1 sequence (P03004 1-467): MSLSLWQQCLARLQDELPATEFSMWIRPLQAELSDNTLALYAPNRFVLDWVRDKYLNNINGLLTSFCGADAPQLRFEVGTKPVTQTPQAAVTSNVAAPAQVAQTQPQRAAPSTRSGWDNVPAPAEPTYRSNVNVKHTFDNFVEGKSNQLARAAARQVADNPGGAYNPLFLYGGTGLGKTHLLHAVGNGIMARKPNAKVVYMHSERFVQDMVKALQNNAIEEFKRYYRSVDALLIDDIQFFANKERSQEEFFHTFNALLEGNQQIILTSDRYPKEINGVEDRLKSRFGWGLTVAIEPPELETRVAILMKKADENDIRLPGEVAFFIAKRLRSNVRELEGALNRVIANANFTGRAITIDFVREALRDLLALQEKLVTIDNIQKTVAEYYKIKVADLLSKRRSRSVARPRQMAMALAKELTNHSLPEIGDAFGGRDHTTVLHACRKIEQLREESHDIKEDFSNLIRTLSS
Excerpt: (§1) nucleotide binding to purified DnaA (method not described) on DnaA (wild-type DnaA)

DnaA = molecular target: T2, DnaA (Escherichia coli, UniProt P03004, H136A); assay: as above
T2 construct: full-length wild-type DnaA, overproduced from pKA234 (arabinose-inducible pING derivative) in E. coli KA450 and purified; no tag mentioned
T2 sequence (P03004 1-467 H136A): T1 sequence (P03004 1-467) with H136A
Excerpt: as §1

[1] = molecular target: T3, DnaB replicative helicase (E. coli, UniProt P0ACB0 1-471); assay: pull-down; biotinylated oriC DNA (bio-oriC, 419 bp, 0.1 pmol) incubated on ice for 10 min with 5 pmol ATP-DnaA and different amounts of DnaB in buffer G (20 mM HEPES-KOH pH 7.6, 5 mM magnesium acetate, 1 mM EDTA, 10% glycerol, 0.1% Triton X-100, 4 mM DTT) with 1 mM ATP; recovered with streptavidin-coated beads; washed once with buffer G without KCl; silver staining with quantitative standards; no DnaC; conditions: both partners purified
T3 construct: DnaB replicative helicase, Escherichia coli; No tag is named for the DnaB of the bio-oriC pull-down; The Form I* assay used His-DnaB and the His-DnaB pull-down used His-DnaB K236A; these forms are named in the readout of the functional rows; also called DnaB helicase

Molecule: Nc1ncnc2c1ncn2[C@@H]1O[C@H](COP(=O)(O)OP(=O)(O)O)[C@@H](O)[C@H]1O [ADP]
Kd (DnaA (wild-type DnaA); read-out: KD (nM) / ADP): 35 nM
Kd (DnaA; read-out: KD (nM) / ADP): 50 nM

Molecule: Nc1ncnc2c1ncn2[C@@H]1O[C@H](COP(=O)(O)OP(=O)(O)OP(=O)(O)O)[C@@H](O)[C@H]1O [ATP]
Kd (DnaA (wild-type DnaA); read-out: KD (nM) / ATP): 24 nM
Kd (DnaA; read-out: KD (nM) / ATP): 21 nM

Continued, values first:

binding result [1]: binds
B1: wild-type DnaA (natural protein, E. coli, UniProt P03004 1-467, looked up)
chain: T1 sequence (P03004 1-467)
notes: DnaA, chromosomal replication initiator protein, Escherichia coli; wild-type dnaA-coding region of pKA234; also called WT; ATP-DnaA; source: E. coli KA450, overproduced from pKA234, purified

binding result [1]: binds
B2: DnaA H136A (natural protein, E. coli, UniProt P03004 1-467, looked up)
chain: T1 sequence (P03004 1-467) with H136A
notes: DnaA, Escherichia coli, with the substitution H136A in domain III; pH136A is a derivative of pKA234; also called DnaA H136A mutant protein; source: E. coli KA450, overproduced from pH136A, purified
